Measurements as given in patent publication US11180504B2 (ORCHID PHARMA LTD., priority 2016, dated 2021).
Values after ≈ are worked out from the molar mass of the structure shown. Like-named read-outs stand apart in the source and are kept apart here.

Key:
[1] = system: methicillin-sensitive Staphylococcus aureus; test: MIC by broth micro-dilution (CLSI), methicillin-sensitive S. aureus; assay type: cell-based; conditions: MSSA S. aureus ATCC29213
[2] = system: carbapenem sensitive Pseudomonas aeruginosa; test: MIC by broth micro-dilution (CLSI), carbapenem sensitive P. aeruginosa; assay type: cell-based
[3] = system: carbapenemase producing K. pneumoniae; test: MIC by broth micro-dilution (CLSI), carbapenemase producing K. pneumoniae; assay type: cell-based, Klebsiella pneumoniae
[4] = system: carbapenem sensitive Escherichia coli; test: MIC by broth micro-dilution (CLSI), carbapenem sensitive E. coli; assay type: cell-based
[5] = Staphylococcus aureus, ATCC 29213 / MSSA, read-out: MIC
[6] = Pseudomonas aeruginosa, ATCC27853, Meropenem susceptible P. aeruginosa ATCC27853, read-out: MIC
[7] = Klebsiella pneumoniae, ATCCBAA1705, KPC-2 K. pneumoniae ATCC BAA-1705, read-out: MIC
[8] = Escherichia coli, ATCC25922, ESBL −ve E. coli ATCC25922, read-out: MIC
[9] = KPC-2 K. pneumoniae ATCC BAA-1705

MIC [1, 5]	MIC [2, 6]	MIC [3, 7]	MIC [4, 8]	MIC [3, 9]	MIC [1]	MIC ([2]; Meropenem susceptible P. aeruginosa ATCC27853)	MIC ([4]; ESBL −ve E. coli ATCC25922)	SMILES
4 µg/mL (≈ 6.49 µM)	16 µg/mL (≈ 25.9 µM)	1 µg/mL (≈ 1.62 µM)	0.5 µg/mL (≈ 0.811 µM)	–	–	–	–	C[C@@H](NC(=O)Cn1cnnn1)[C@H]1C(=O)N2C(C(=O)O)=C(S[C@@H]3CN[C@H](C(=O)N4CCC5CN(CCN)CCC54)C3)[C@H](C)[C@H]12 (stereo partly drawn) [Example 489, (4R,5S,6R)-6-((R)-1-(2-(1H-tetrazol-1-yl)acetamido)ethyl)-3-((3S,5S)-5-(5-(2-aminoethyl)octahydro-1H-pyrrolo[3,2-c]pyridine-1-carbonyl)pyrrolidin-3-ylthio)-4-methyl-7-oxo-1-azabicyclo[3.2.0]hept-2-ene-2-carboxylic acid]
4 µg/mL (≈ 7.07 µM)	8 µg/mL (≈ 14.1 µM)	2 µg/mL (≈ 3.54 µM)	0.25 µg/mL (≈ 0.442 µM)	–	–	–	–	C[C@@H](NC(=O)Cn1cnnn1)[C@H]1C(=O)N2C(C(=O)O)=C(S[C@@H]3CN[C@H](C(=O)N4C[C@@H](N)C[C@H]4CF)C3)[C@H](C)[C@H]12 [Example 491, (4R,5S,6R)-6-((R)-1-(2-(1H-tetrazol-1-yl)acetamido)ethyl)-3-((3S,5S)-5-((2S,4S)-4-amino-2-(fluoromethyl)pyrrolidine-1-carbonyl)pyrrolidin-3-ylthio)-4-methyl-7-oxo-1-azabicyclo[3.2.0]hept-2-eoe-2-carboxylic acid]
4 µg/mL (≈ 6.61 µM)	2 µg/mL (≈ 3.31 µM)	2 µg/mL (≈ 3.31 µM)	0.5 µg/mL (≈ 0.827 µM)	–	–	–	–	C[C@@H](NC(=O)Cn1cnnn1)[C@H]1C(=O)N2C(C(=O)O)=C(S[C@@H]3CN[C@H](C(=O)N4CC[C@@H](NC(=O)CCN)C4)C3)[C@H](C)[C@H]12 [Example 492, (4R,5S,6R)-6-((R)-1-(2-(1H-tetrazol-1-yl)acetamido)ethyl)-3-((3S,5S)-5-((R)-3-(3-aminopropanamido)pyrrolidine-1-carbonyl)pyrrolidin-3-ylthio)-4-methyl-7-oxo-1-azabicyclo[3.2.0]hept-2-ene-2-carboxylic acid]
8 µg/mL (≈ 14.2 µM)	16 µg/mL (≈ 28.4 µM)	4 µg/mL (≈ 7.1 µM)	0.25 µg/mL (≈ 0.444 µM)	–	–	–	–	CO[C@H]1CN(C(=O)[C@@H]2C[C@H](SC3=C(C(=O)O)N4C(=O)[C@H]([C@@H](C)NC(=O)Cn5cnnn5)[C@H]4[C@H]3C)CN2)C[C@@H]1N [Example 494, (4R,5S,6R)-6-((R)-1-(2-(1H-tetrazol-1-yl)acetamido)ethyl)-3-((3S,5S)-5-((3S,4S)-3-amino-4-methoxypyrrolidine-1-carbonyl)pyrrolidin-3-ylthio)-4-methyl-7-oxo-1-azabicyclo[3.2.0]hept-2-ene-2-carboxylic acid]
2 µg/mL (≈ 3.63 µM)	8 µg/mL (≈ 14.5 µM)	2 µg/mL (≈ 3.63 µM)	0.125 µg/mL (≈ 0.227 µM)	–	–	–	–	C[C@@H](NC(=O)Cn1cnnn1)[C@H]1C(=O)N2C(C(=O)O)=C(S[C@@H]3CN[C@H](C(=O)N4C[C@@H](F)[C@@H](N)C4)C3)[C@H](C)[C@H]12 [Example 498, (4R,5S,6R)-6-((R)-1-(2-(1H-tetrazol-1-yl)acetamido)ethyl)-3-((3S,5S)-5-((3S,4R)-3-amino-4-fluoropyrrolidine-1-carbonyl)pyrrolidin-3-ylthio)-4-methyl-7-oxo-1-azabicyclo[3.2.0]hept-2-ene-2-carboxylic acid]
2 µg/mL (≈ 3.4 µM)	1 µg/mL (≈ 1.7 µM)	1 µg/mL (≈ 1.7 µM)	0.25 µg/mL (≈ 0.425 µM)	–	–	–	–	C[C@@H](NC(=O)Cn1cnnn1)[C@H]1C(=O)N2C(C(=O)O)=C(S[C@@H]3CN[C@H](C(=O)N4CCC5(CCNCC5)C4)C3)[C@H](C)[C@H]12 [Example 499, (4R,5S,6R)-6-((R)-1-(2-(1H-tetrazol-1-yl)acetamido)ethyl)-3-((3S,5S)-5-(2,8-diazaspiro[4.5]decane-2-carbonyl)pyrrolidin-3-ylthio)-4-methyl-7-oxo-1-azabicyclo[3.2.0]hept-2-ene-2-carboxylic acid]
2 µg/mL (≈ 3.47 µM)	2 µg/mL (≈ 3.47 µM)	2 µg/mL (≈ 3.47 µM)	0.25 µg/mL (≈ 0.434 µM)	–	–	–	–	C[C@@H](NC(=O)Cn1cnnn1)[C@H]1C(=O)N2C(C(=O)O)=C(S[C@@H]3CN[C@H](C(=O)N4CC[C@@H](C(C)(C)N)C4)C3)[C@H](C)[C@H]12 [Example 500, (4R,5S,6R)-6-((R)-1-(2-(1H-tetrazol-1-yl)acetamido)ethyl)-3-((3S,5S)-5-((R)-3-(2-aminopropan-2-yl)pyrrolidine-1-carbonyl)pyrrolidin-3-ylthio)-4-methyl-7-oxo-1-azabicyclo[3.2.0]hept-2-ene-2-carboxylic acid]
4 µg/mL (≈ 7.15 µM)	1 µg/mL (≈ 1.79 µM)	1 µg/mL (≈ 1.79 µM)	0.25 µg/mL (≈ 0.447 µM)	–	–	–	–	C[C@@H](NC(=O)Cn1cnnn1)[C@H]1C(=O)N2C(C(=O)O)=C(S[C@@H]3CN[C@H](C(=O)N4CC5(CCNC5)C4)C3)[C@H](C)[C@H]12 [Example 501, (4R,5S,6R)-6-((R)-1-(2-(1H-tetrazol-1-yl)acetamido)ethyl)-3-((3S,5S)-5-(2,6-diazaspiro[3,4]octane-2-carbonyl)pyrrolidin-3-ylthio)-4-methyl-7-oxo-1-azabicyclo[3.2.0]hept-2-ene-2-carboxylic acid]
4 µg/mL (≈ 7.15 µM)	2 µg/mL (≈ 3.57 µM)	1 µg/mL (≈ 1.79 µM)	0.25 µg/mL (≈ 0.447 µM)	–	–	–	–	C[C@@H](NC(=O)Cn1cnnn1)[C@H]1C(=O)N2C(C(=O)O)=C(S[C@@H]3CN[C@H](C(=O)N4CCC5(CNC5)C4)C3)[C@H](C)[C@H]12 [Example 502, (4R,5S,6R)-6-((R)-1-(2-(1H-tetrazol-1-yl)acetamido)ethyl)-3-((3S,5S)-5-(2,6-diazaspiro[3.4]octane-6-carbonyl)pyrrolidin-3-ylthio)-4-methyl-7-oxo-1-azabicyclo[3.2.0]hept-2-ene-2-carboxylic acid]
2 µg/mL (≈ 3.4 µM)	16 µg/mL (≈ 27.2 µM)	–	0.5 µg/mL (≈ 0.851 µM)	1 µg/mL (≈ 1.7 µM)	–	–	–	C[C@@H](NC(=O)Cn1cnnn1)[C@H]1C(=O)N2C(C(=O)O)=C(S[C@@H]3CN[C@H](C(=O)N4CCCC45CCCNC5)C3)[C@H](C)[C@H]12 (stereo partly drawn) [Example 503, (4R,5S,6R)-3-((3S,5S)-5-(1,7-diazaspiro[4.5]decane-1-carbonyl)pyrrolidin-3-ylthio)-6-((R)-1-(2-(1H-tetrazol-1-yl)acetamido)ethyl)-4-methyl-7-oxo-1-azabicyclo[3.2.0]hept-2-ene-2-carboxylic acid]
2 µg/mL (≈ 3.57 µM)	1 µg/mL (≈ 1.79 µM)	1 µg/mL (≈ 1.79 µM)	0.25 µg/mL (≈ 0.447 µM)	–	–	–	–	C[C@@H](NC(=O)Cn1cnnn1)[C@H]1C(=O)N2C(C(=O)O)=C(S[C@@H]3CN[C@H](C(=O)N4CC5CCNC5C4)C3)[C@H](C)[C@H]12 (stereo partly drawn) [Example 505, (4R,5S,6R)-6-((R)-1-(2-(1H-tetrazol-1-yl)acetamido)ethyl)-4-methyl-3-((3S,5S)-5-(octahydropyrrolo[3,4-b]pyrrole-5-carbonyl)pyrrolidin-3-ylthio)-7-oxo-1-azabicyclo[3.2.0]hept-2-ene-2-carboxylic acid]
–	–	–	–	1 µg/mL (≈ 1.79 µM)	4 µg/mL (≈ 7.15 µM)	1 µg/mL (≈ 1.79 µM)	0.25 µg/mL (≈ 0.447 µM)	C[C@@H](NC(=O)Cn1cnnn1)[C@H]1C(=O)N2C(C(=O)O)=C(S[C@@H]3CN[C@H](C(=O)N4CC5CCNC5C4)C3)[C@H](C)[C@H]12 (stereo partly drawn) [Example 506, (4R,5S,6R)-6-((R)-1-(2-(1H-tetrazol-1-yl)acetamido)ethyl)-4-methyl-3-((3S,5S)-5-(octahydropyrrolo[3,4-b]pyrrole-5-carbonyl)pyrrolidin-3-ylthio)-7-oxo-1-azabicyclo[3.2.0]hept-2-ene-2-carboxylic acid]
2 µg/mL (≈ 3.65 µM)	64 µg/mL (≈ 117 µM)	8 µg/mL (≈ 14.6 µM)	1 µg/mL (≈ 1.83 µM)	–	–	–	–	C[C@@H](NC(=O)CSC(F)F)[C@H]1C(=O)N2C(C(=O)O)=C(S[C@@H]3CN[C@H](C(=O)N4CC[C@@H](N)C4)C3)[C@H](C)[C@H]12 [Example 507, (4R,5S,6R)-3-((3S,5S)-5-((R)-3-aminopyrrolidine-1-carbonyl)pyrrolidin-3-ylthio)-6-((R)-1-(2-(difluoromethylthio)acetamido)ethyl)-4-methyl-7-oxo-1-azabicyclo[3.2.0]hept-2-ene-2-carboxylic acid]
16 µg/mL (≈ 31.5 µM)	128 µg/mL (≈ 252 µM)	8 µg/mL (≈ 15.7 µM)	2 µg/mL (≈ 3.93 µM)	–	–	–	–	C[C@@H](NC(=O)CN1CCNCC1)[C@H]1C(=O)N2C(C(=O)O)=C(S[C@@H]3CN[C@H](C(=O)N(C)C)C3)[C@H](C)[C@H]12 [Example 508, (4R,5S,6R)-3-((3S,5S)-5-(dimethylcarbamoyl)pyrrolidin-3-ylthio)-4-methyl-7-oxo-6-((R)-1-(2-(piperazin-1-yl)acetamido)ethyl)-1-azabicyclo[3.2.0]hept-2-ene-2-carboxylic acid]
8 µg/mL (≈ 15.1 µM)	> 128 µg/mL	64 µg/mL (≈ 121 µM)	2 µg/mL (≈ 3.78 µM)	–	–	–	–	C[C@@H](NC(=O)CN1CCC(F)(F)C1)[C@H]1C(=O)N2C(C(=O)O)=C(S[C@@H]3CN[C@H](C(=O)N(C)C)C3)[C@H](C)[C@H]12 [Example 512, (4R,5S,6R)-6-((R)-1-(2-(3,3-difluoropyrrolidin-1-yl)acetamido)ethyl)-3-((3S,5S)-5-(dimethylcarbamoyl)pyrrolidin-3-ylthio)-4-methyl-7-oxo-1-azabicyclo[3.2.0]hept-2-ene-2-carboxylic acid]
4 µg/mL (≈ 7.3 µM)	16 µg/mL (≈ 29.2 µM)	1 µg/mL (≈ 1.83 µM)	0.25 µg/mL (≈ 0.457 µM)	–	–	–	–	C[C@@H](NC(=O)Cn1cnnn1)[C@H]1C(=O)N2C(C(=O)O)=C(S[C@@H]3CN[C@H](C(=O)NC[C@@H]4CCNC4)C3)[C@H](C)[C@H]12 [Example 513, (4R,5S,6R)-6-((R)-1-(2-(1H-tetrazol-1-yl)acetamido)ethyl)-4-methyl-7-oxo-3-((3S,5S)-5-((R)-pyrrolidin-3-ylmethylcarbamoyl)pyrrolidin-3-ylthio)-1-azabicyclo[3.2.0]hept-2-ene-2-carboxylic acid]
